For 25 compounds, IC50 results are on record in patent publication US20020183518A1, “Modulators of proteins with phosphotyrosine recognition units” (ONTOGEN CORPORATION, priority 1995, published 2002).

One test concerns the target T1, CD45 (Homo sapiens, UniProt P08575).
T1 construct: The PCR reaction product (2127 bp) was digested with Sma I (New England Biolabs, Beverly Mass.) to yield a 2110 bp product; made in house; host or cells: E. coli DH5α, plasmid pET24C-CD45
T1 sequence (P08575 599-1306 limits assumed): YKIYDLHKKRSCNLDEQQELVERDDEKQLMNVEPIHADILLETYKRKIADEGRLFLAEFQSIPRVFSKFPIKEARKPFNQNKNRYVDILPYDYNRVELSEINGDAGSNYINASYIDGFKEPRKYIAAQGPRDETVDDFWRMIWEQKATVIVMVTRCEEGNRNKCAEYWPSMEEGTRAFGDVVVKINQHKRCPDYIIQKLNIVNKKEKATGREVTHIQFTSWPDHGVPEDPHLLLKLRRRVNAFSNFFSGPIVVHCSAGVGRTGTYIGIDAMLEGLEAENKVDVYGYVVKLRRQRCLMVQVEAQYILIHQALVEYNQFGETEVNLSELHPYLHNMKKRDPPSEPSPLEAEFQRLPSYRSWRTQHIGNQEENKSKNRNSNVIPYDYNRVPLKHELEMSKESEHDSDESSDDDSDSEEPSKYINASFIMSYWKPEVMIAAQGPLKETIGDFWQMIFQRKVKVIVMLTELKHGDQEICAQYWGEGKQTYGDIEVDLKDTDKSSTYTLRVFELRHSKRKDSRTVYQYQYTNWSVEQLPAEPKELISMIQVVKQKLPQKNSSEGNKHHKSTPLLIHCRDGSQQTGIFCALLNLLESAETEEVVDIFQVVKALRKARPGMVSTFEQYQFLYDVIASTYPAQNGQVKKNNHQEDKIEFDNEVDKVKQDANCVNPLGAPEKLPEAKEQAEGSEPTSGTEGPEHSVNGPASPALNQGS
In words: In vitro PTPase inhibition assay (pNPP, colorimetric), CD45. Conditions: Table 9; read-out: IC50 values against CD45. In kind it is biochemical. As to the method:
CD45 enzymatic activity of samples was assayed in microtiter plates as follows. […] Louis Mo.), and 80 ul of activity assay buffer (100 mM sodium acetate, pH 6.0, 1 mM EDTA, 0.1% Triton X-100, 15 mM bME). Reactions were mixed gently and incubated at 37° C. for 60 minutes. […] To determine the enzymatic activity, absorbance readings of the reactions were measured at 405 nm using a Molecular Devices Thermomax Plate Reader (Menlo Park Calif.). […] Purified phosphatase was added to the reaction mixtures to begin the reactions; the reactions were incubated at 37° C. for 60 min. […] (for PTP-1C and PTPα assays), stopped, and colorimetrically analyzed as described above. […] First, absorbance readings from the negative control reactions were treated as a baseline and subtracted from the absorbance readings of the experimental reactions. Then, for each reaction, a percent inhibition was calculated using the following formula: […] For each inhibitor compound tested, an IC50 concentration was calculated from a best-fit computer analysis of the calculated percent inhibition for the various dilutions of the compound. CD45 enzymatic activity of samples was assayed in microtiter plates as follows. […] Louis Mo.), and 80 ul of activity assay buffer (100 mM sodium acetate, pH 6.0, 1 mM EDTA, 0. 1% Triton X-100, 15 mM bME). Reactions were mixed gently and incubated at 37° C. for 60 minutes. […] To determine the enzymatic activity, absorbance readings of the reactions were measured at 405 nm using a Molecular Devices Thermomax Plate Reader (Menlo Park Calif.). […] Purified phosphatase was added to the reaction mixtures to begin the reactions; the reactions were incubated at 37° C. for 60 min. […] (for PTP-1C and PTPα assays), stopped, and calorimetrically analyzed as described above. […] First, absorbance readings from the negative control reactions were treated as a baseline and subtracted from the absorbance readings of the experimental reactions. Then, for each reaction, a percent inhibition was calculated using the following formula: […] For each inhibitor compound tested, an IC50 concentration was calculated from a best-fit computer analysis of the calculated percent inhibition for the various dilutions of the compound.

Another test deals with T2, PTP-1B (Homo sapiens, UniProt P18031).
T2 construct: known to encode a 321 amino acid fragment containing the PTP-1B catalytic domain and having PTPase activity; made in house; host or cells: E. coli DH5α, plasmid pGEX-3X-PTP-1B
T2 sequence (P18031 3-277 limits assumed): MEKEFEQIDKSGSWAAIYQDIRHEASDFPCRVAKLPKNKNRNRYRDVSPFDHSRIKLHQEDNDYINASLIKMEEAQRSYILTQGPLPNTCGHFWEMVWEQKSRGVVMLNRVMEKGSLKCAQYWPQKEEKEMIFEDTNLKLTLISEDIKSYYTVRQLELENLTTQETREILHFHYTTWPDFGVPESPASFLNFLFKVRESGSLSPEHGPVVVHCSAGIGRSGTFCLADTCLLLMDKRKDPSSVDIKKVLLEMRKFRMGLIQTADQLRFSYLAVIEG
In words: In vitro PTPase inhibition assay (pNPP, colorimetric), PTP-1B. The settings on record: Table 9; read-out: IC50 values against PTP1B. In kind it is biochemical. As to the method: PTP-1B enzymatic activity of samples was assayed in microtiter plates as follows. The protein concentration of the PTP-1B enzyme preparation was determined using the Bio-Rad Protein Assay kit (Bio-Rad, Hercules Calif.). […] Reactions were mixed gently and incubated at 37° C. for 60 minutes. Enzymatic cleavage of phosphate from pNPP (a tyrosine phosphate analog) is marked by a colorimetric change in this substrate. See, e.g., Imbert et al., Biochem J., 297:163-173 (1994); Ghosh and Miller, Biochem. Biophys. Res. […] Zanke et al., Eur. J. […] To determine the enzymatic activity, absorbance readings of the reactions were measured at 405 nm using a Molecular Devices Thermomax Plate Reader (Menlo Park Calif.). […] Purified phosphatase was added to the reaction mixtures to begin the reactions; the reactions were incubated at 37° C. for 60 min. […] (for PTP-1C and PTPα assays), stopped, and colorimetrically analyzed as described above. […] First, absorbance readings from the negative control reactions were treated as a baseline and subtracted from the absorbance readings of the experimental reactions. Then, for each reaction, a percent inhibition was calculated using the following formula: […] For each inhibitor compound tested, an IC50 concentration was calculated from a best-fit computer analysis of the calculated percent inhibition for the various dilutions of the compound. PTP-1B enzymatic activity of samples was assayed in microtiter plates as follows. The protein concentration of the PTP-1B enzyme preparation was determined using the Bio-Rad Protein Assay kit (Bio-Rad, Hercules Calif.). […] Reactions were mixed gently and incubated at 37° C. for 60 minutes. Enzymatic cleavage of phosphate from pNPP (a tyrosine phosphate analog) is marked by a colorimetric change in this substrate. See, e.g., Imbert et al., Biochem J., 297:163-173 (1994); Ghosh and Miller, Biochem. Biophys. Res. […] Zanke et al., Eur. […] To determine the enzymatic activity, absorbance readings of the reactions were measured at 405 nm using a Molecular Devices Thermomax Plate Reader (Menlo Park Calif.). […] Purified phosphatase was added to the reaction mixtures to begin the reactions; the reactions were incubated at 37° C. for 60 min. […] (for PTP-1C and PTPα assays), stopped, and calorimetrically analyzed as described above. […] First, absorbance readings from the negative control reactions were treated as a baseline and subtracted from the absorbance readings of the experimental reactions. Then, for each reaction, a percent inhibition was calculated using the following formula: […] For each inhibitor compound tested, an IC50 concentration was calculated from a best-fit computer analysis of the calculated percent inhibition for the various dilutions of the compound.

What is called IC50 is the point on the concentration scale where inhibition reaches its midpoint.

For `N#Cc1ccc(-c2nc(-c3ccc(/C=C/C(=O)O)cc3)c(-c3ccc(/C=C/C(=O)O)cc3)[nH]2)cc1` [Compound 73], the IC50 on CD45 worked out at 2800 nM; at PTP-1B, 620 nM.
Take `Cn1cc(-c2nc(-c3ccc(/C=C/C(=O)O)cc3)c(-c3ccc(/C=C/C(=O)O)cc3)[nH]2)c2ccccc21` [Compound 74]: the IC50 amounted to 4200 nM at CD45 and 640 nM at PTP-1B.
For the compound `O=C(O)/C=C/c1ccc(-c2nc(-c3ccccc3)[nH]c2-c2ccc(/C=C/C(=O)O)cc2)cc1` [Compound 75], the half-maximal inhibitory concentration (IC50) on CD45 was 3400 nM; at PTP-1B, 680 nM.
Take `O=C(O)/C=C/c1ccc(-c2nc(-c3cc(F)ccc3F)[nH]c2-c2ccc(/C=C/C(=O)O)cc2)cc1` [Compound 76]: the half-maximal inhibitory concentration (IC50) at CD45 was found to be 930 nM; on PTP-1B, 680 nM.
Turning to `CCCCCc1nc(-c2ccc(/C=C/C(=O)O)cc2)c(-c2ccc(/C=C/C(=O)O)cc2)[nH]1` [Compound 77], the half-inhibitory concentration (IC50) at CD45 was 7500 nM; on PTP-1B it was 780 nM.
Regarding `O=C(O)/C=C/c1ccc(-c2nc(-c3ccccc3F)[nH]c2-c2ccc(/C=C/C(=O)O)cc2)cc1` [Compound 78], the concentration for half-maximal inhibition (IC50) worked out at 1150 nM on CD45 and 790 nM on PTP-1B.
Take `O=C(O)/C=C/c1ccc(-c2nc(/C=C/c3ccccc3)[nH]c2-c2ccc(/C=C/C(=O)O)cc2)cc1` [Compound 79]: the half-maximal inhibitory concentration (IC50) worked out at 8200 nM at CD45 and 4800 nM at PTP-1B.
For `O=C(O)/C=C/c1ccc(-c2nc(-c3ccc4ccc5cccc6ccc3c4c56)[nH]c2-c2ccc(/C=C/C(=O)O)cc2)cc1` [Compound 80], in that order: 20000 nM and 10000 nM.
As for `O=C(O)/C=C/c1ccc(-c2nc(-c3cc4ccccc4c4ccccc34)[nH]c2-c2ccc(/C=C/C(=O)O)cc2)cc1` [Compound 81], the half-inhibitory concentration (IC50) was found to be 19000 nM on CD45 and 26000 nM on PTP-1B.
Take `O=C(O)/C=C/c1ccc(-c2nc(-c3cc(Cl)cc(Cl)c3Cl)[nH]c2-c2ccc(/C=C/C(=O)O)cc2)cc1` [Compound 82]: the half-maximal inhibitory concentration (IC50) at CD45 was 12800 nM; on PTP-1B, 11900 nM.
Consider `COc1ccc(-c2nc(-c3ccc(/C=C/C(=O)O)cc3)c(-c3ccc(/C=C/C(=O)O)cc3)[nH]2)cc1F` [Compound 83], for which the IC50 was 1500 nM on CD45 and 1300 nM at PTP-1B.
In the case of `O=C(O)/C=C/c1ccc(-c2nc(-c3c(F)c(F)c(F)c(F)c3F)[nH]c2-c2ccc(/C=C/C(=O)O)cc2)cc1` [Compound 84], the IC50 on CD45 came out at 2700 nM; on PTP-1B it was 1200 nM.
As for `O=C(O)/C=C/c1ccc(-c2nc(-c3ccc4c(c3)OCO4)[nH]c2-c2ccc(/C=C/C(=O)O)cc2)cc1` [Compound 85], the IC50 worked out at 1800 nM on CD45 and 1500 nM at PTP-1B.
In the case of `COc1ccc(-c2nc(-c3ccc(/C=C/C(=O)O)cc3)c(-c3ccc(/C=C/C(=O)O)cc3)[nH]2)c(C)c1C` [Compound 86], the half-maximal inhibitory concentration (IC50) amounted to 7100 nM at CD45 and 1800 nM on PTP-1B.
The corresponding values for `O=C(O)/C=C/c1ccc(-c2nc(-c3ccc(OCc4ccccc4)cc3)[nH]c2-c2ccc(/C=C/C(=O)O)cc2)cc1` [Compound 87] are 1100 nM and 1000 nM.
As to `O=C(O)/C=C/c1ccc(-c2nc(-c3ccc4c(c3)CCC4)[nH]c2-c2ccc(/C=C/C(=O)O)cc2)cc1` [Compound 89], the IC50 was greater than 100000 nM on CD45 and 13700 nM at PTP-1B.
As for `CC(=O)Nc1ccc(-c2nc(-c3ccc(/C=C/C(=O)O)cc3)c(-c3ccc(/C=C/C(=O)O)cc3)[nH]2)cc1` [Compound 90], the concentration for half-maximal inhibition (IC50) on CD45 was determined as 1120 nM; at PTP-1B, 860 nM.
For `COc1ccc(-c2nc(-c3cc(/C=C/C(=O)O)ccc3O)c(-c3cc(/C=C/C(=O)O)ccc3O)[nH]2)cc1` [Compound 91], in that order: greater than 100000 nM and 25900 nM.
As for `CCCCn1cnc(-c2ccc(/C=C/C(=O)O)cc2)c1-c1ccc(/C=C/C(=O)O)cc1` [Compound 94], the values for the IC50 at CD45 and on PTP-1B were 7000 nM and 700 nM, respectively.
`O=C(O)/C=C/c1ccc(-c2ncn(-c3ccccc3)c2-c2ccc(/C=C/C(=O)O)cc2)cc1` [Compound 99]: the figures for the IC50 on CD45 and at PTP-1B were 7400 nM and 1500 nM, respectively.
As for `O=C(O)/C=C/c1ccc(-c2[nH]cnc2C(=O)OCc2ccccc2)cc1` [Compound 134], the values for the IC50 on CD45 and on PTP-1B were 20000 nM and 3400 nM, respectively.
For `O=C(O)/C=C/c1ccc(-c2nc(C(=O)OCc3ccccc3)c(-c3ccc(/C=C/C(=O)O)cc3)[nH]2)cc1` [Compound 136], the IC50 on CD45 came to 8000 nM; at PTP-1B, 700 nM.
For `O=C(O)/C=C/c1ccc(-c2nc3ccc([N+](=O)[O-])cc3nc2-c2ccc(/C=C/C(=O)O)cc2)cc1` [Compound 152], in that order: 1200 nM and 850 nM.
`O=C(O)/C=C/c1ccc(-c2nc3cc(Cl)c(Cl)cc3nc2-c2ccc(/C=C/C(=O)O)cc2)cc1` [Compound 153]: the half-inhibitory concentration (IC50) at CD45 worked out at 1910 nM; on PTP-1B it was 2650 nM.
As to `Cc1ccc2nc(-c3ccc(/C=C/C(=O)O)cc3)c(-c3ccc(/C=C/C(=O)O)cc3)nc2c1` [Compound 154], the concentration for half-maximal inhibition (IC50) was 2450 nM at CD45 and 3830 nM at PTP-1B.
